Results as given in patent US11549123B2, “Plant EPSP synthases and methods of use” (PIONEER HI-BRED INTERNATIONAL, INC., priority 2015, dated 2023).

Experiments:
[1] = target: Zea mays EPSPS variant WT-FS-E2 (102A 302S 391G 438R I208L) (Zea mays, UniProt O24566, E301S/E390G/G101A/I207L/V437R); test: EPSPS substrate saturation kinetics, WT-FS-E2; assay type: biochemical
Procedure: EPSPS activity was determined by quantifying the phosphate generated from the EPSPS reaction. Release of inorganic phosphate was coupled to reaction with 2-amino-6-mercapto-7-methylpurine ribonucleoside, catalyzed by purine-nucleoside phosphorylase (M R Webb, Proc. Natl. Acad. Sci. 89:4884-4887, 1992). The absorbance change that occurs was monitored at 360 nm, where the extinction is 11,200 M^−1 cm^−1, with a Spectramax plate reader (Molecular Devices). To determine kinetic parameters, the varied substrate was present at seven concentrations (the eighth being the blank, containing no substrate) ranging from 4 to 400 uM and the unvaried substrate present at saturation. […] Reactions were monitored with a Spectramax plate reader. […] KI was then calculated from the following form of the Michaelis-Menten equation for competitive inhibition: KI=KM[I]/(KM app−KM) KM approximates the dissociation constant of the enzyme-substrate complex while kcat is the rate of conversion of substrate to product when the substrate concentration is saturating. kcat/KM is a widely accepted parameter for catalytic efficiency when substrate concentration is low (˜KM). […] The parameter kcat/KM×KI is used to quantify both catalytic efficiency and insensitivity and thus the overall fitness of the enzyme. […]

[2] = target: T1, Zea mays EPSPS variant Zm-T103I (Zea mays, UniProt O24566, T102I); test: Rapid two-rate method for (kcat/KM)*KI, Zm-T103I; assay type: biochemical
T1 construct: native maize plus T103I; E. coli BL21(DE3), Ni-NTA purified
T1 sequence (O24566 with tags, fused parts or gaps T102I): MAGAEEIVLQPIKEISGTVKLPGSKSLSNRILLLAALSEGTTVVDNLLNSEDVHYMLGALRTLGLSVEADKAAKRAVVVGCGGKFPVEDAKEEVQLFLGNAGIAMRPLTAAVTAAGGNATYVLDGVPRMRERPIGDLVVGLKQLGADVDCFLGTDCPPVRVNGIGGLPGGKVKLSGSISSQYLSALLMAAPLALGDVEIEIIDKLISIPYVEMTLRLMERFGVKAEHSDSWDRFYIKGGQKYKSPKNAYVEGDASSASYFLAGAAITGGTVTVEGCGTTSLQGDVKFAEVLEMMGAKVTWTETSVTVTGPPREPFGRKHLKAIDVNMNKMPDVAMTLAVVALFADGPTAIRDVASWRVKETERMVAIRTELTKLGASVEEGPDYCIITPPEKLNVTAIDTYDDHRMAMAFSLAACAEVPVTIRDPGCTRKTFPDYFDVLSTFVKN
Source text: There are several practical considerations for accurately estimating (kcat/KM)*KI with the rapid method. […] 2) The inhibitor concentration must be adjusted so as to obtain a degree of inhibition that minimally amplifies the error in the term v0-vi in Equation 3. If inhibition is too little, v0-vi will be small, and the error in the multiplier vi×v0/(v0-vi) will be large. […] 3) Substrate concentration should be set at the approximate KM of the parental variant(s), subject to the sensitivity of the assay. High substrate concentration obscures sensitivity to the inhibitor and reduces stringency for capturing improvements in KM. Depending on the necessity for speed, there exists opportunity for customizing enzyme and inhibitor concentrations. […] The rapid method was repeated for those and obtained data that correlated better with data obtained by substrate saturation analysis. For screening purposes however, that correlation step is not necessary. Conditions can be set so that variants with a pre-determined minimal fitness level are accurately quantified.
In Table 15, parameters above the heavy line for the rapid method were obtained under standard conditions. For variants shown below the heavy line, the rapid analysis was repeated with enzyme or glyphosate concentrations adjusted as needed to generate sufficient signal within the limits for linear initial rates.

[3] = test system: Glycine max (93Y21) hairy root; test: Hairy root growth from transformed soybean cotyledons with or without 25 uM glyphosate; assay type: cell-based; conditions: medium containing 25 uM glyphosate
[4] = target: Zea mays EPSPS variant 4N (Zea mays, UniProt O24566, A3N); test: EPSPS reaction rate with or without 10 uM glyphosate, 4N; assay type: biochemical; conditions: pH 7; read-out: Reaction rate with 10 μM glyph, % no glyph; also: 50 µM PEP and S3P
[5] = target: Zea mays EPSPS variant 208V 313G (Zea mays, UniProt O24566, E312G/I207V); test: EPSPS reaction rate with or without 10 uM glyphosate, 208V 313G; assay type: biochemical; conditions: pH 7; read-out: Reaction rate with 10 μM glyph, % no glyph; also: 50 µM PEP and S3P
Zea mays EPSPS variant 208V 313G, sequence (O24566 1-444 I207V/E312G): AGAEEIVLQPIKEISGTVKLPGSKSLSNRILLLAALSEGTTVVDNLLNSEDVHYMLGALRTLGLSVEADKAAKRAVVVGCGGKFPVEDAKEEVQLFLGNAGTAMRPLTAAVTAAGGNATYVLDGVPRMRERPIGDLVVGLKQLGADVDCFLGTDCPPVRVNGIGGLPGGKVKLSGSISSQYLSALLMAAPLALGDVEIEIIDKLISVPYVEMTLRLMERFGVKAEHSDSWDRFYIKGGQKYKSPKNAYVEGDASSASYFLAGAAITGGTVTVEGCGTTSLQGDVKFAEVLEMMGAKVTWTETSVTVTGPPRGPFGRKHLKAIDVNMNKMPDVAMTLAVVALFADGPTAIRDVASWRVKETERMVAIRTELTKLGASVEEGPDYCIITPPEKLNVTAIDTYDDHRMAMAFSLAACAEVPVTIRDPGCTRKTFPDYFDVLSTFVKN

Zea mays EPSPS variant WT-FS-E2 (102A 302S 391G 438R I208L), sequence (O24566 entry or part of it G101A/I207L/E301S/E390G/V437R): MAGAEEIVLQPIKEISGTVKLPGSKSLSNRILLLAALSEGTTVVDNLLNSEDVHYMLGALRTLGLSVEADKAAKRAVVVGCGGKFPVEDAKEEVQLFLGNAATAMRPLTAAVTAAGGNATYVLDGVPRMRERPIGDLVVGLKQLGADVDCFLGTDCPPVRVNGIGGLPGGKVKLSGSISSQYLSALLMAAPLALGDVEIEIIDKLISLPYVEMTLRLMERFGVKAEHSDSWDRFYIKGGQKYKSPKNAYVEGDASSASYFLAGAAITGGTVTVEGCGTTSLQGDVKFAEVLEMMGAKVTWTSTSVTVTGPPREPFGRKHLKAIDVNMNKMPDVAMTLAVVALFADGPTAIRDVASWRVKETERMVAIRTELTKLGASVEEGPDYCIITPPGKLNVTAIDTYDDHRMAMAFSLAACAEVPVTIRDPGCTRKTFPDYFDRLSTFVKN
Zea mays EPSPS variant 4N, sequence (O24566 entry or part of it A3N): as the sequence (O24566 entry or part of it G101A/I207L/E301S/E390G/V437R) above, with A4N, A102G, L208I, S302E, G391E, R438V counted along it

Structure (SMILES): O=C(O)CNCP(=O)(O)O [glyphosate, N-phosphonomethylglycine]
- Ki [1]: 663 µM
- (kcat/KM)*KI ([1]; PEP as substrate, glyphosate as inhibitor): 4512
- (kcat/KM)*KI ([2]; rapid method repeated, [E] 0.103 uM, [Gly] 100 uM): 116
- (kcat/KM)*KI ([2]; rapid method, [E] 0.07 uM, [Gly] 1000 uM): 133
- root growth of untransformed cotyledons [3]: no growth
- activity at 10 µM [4]: 7.56%
- activity at 10 µM [5]: 3.21%
